Several values for one entry are separate records, joined by “and”; a condition that tells them apart may be missing. Equal entries are not always repeated. Inconclusive results and toxic doses are left out.
Test system: L1210 leukemia ip in BDF1 mice, survival T/C
Assay: NCI In Vivo Anticancer Drug Screen. Data for tumor model L1210 Leukemia (intraperitoneal) in B6D2F1 (BDF1) mice
Conditions: endpoint: mean survival time, higher = longer survival
Procedure, shortened: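 Value reflects the ratio of survival in compound-treated mice to survival in vehicle-treated controls, with both groups carrying the same transplanted tumor.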

C[C@H](N)C(=O)N[C@@H]1[C@H]2C(=C(O)C[C@@H](O)[C@@H]2O)C(=O)O[C@@H]1C
T/C (dose: 16.0 mg/kg/injection, schedule: Q01DX Z (ip), vehicle: carboxymethylcellulose (CMC)): 100 % of control
T/C (dose: 31.0 mg/kg/injection, schedule: Q01DX Z (ip), vehicle: carboxymethylcellulose (CMC)): 97 % of control
T/C (dose: 37.5 mg/kg/injection, schedule: Q01DX010 (ip), vehicle: saline): 102 % of control and 104 % of control
T/C (dose: 50.0 mg/kg/injection, schedule: Q01DX001 (ip), vehicle: saline): 105 % of control
T/C (dose: 50.0 mg/kg/injection, schedule: Q#A X Z (ip), vehicle: saline): 120 % of control
T/C (dose: 62.0 mg/kg/injection, schedule: Q01DX Z (ip), vehicle: carboxymethylcellulose (CMC)): 112 % of control
T/C (dose: 75.0 mg/kg/injection, schedule: Q01DX010 (ip), vehicle: saline): 104 % of control
T/C (dose: 88.0 mg/kg/injection, schedule: Q01DX015 (ip), vehicle: saline): 118 % of control
T/C (dose: 100.0 mg/kg/injection, schedule: Q01DX001 (ip), vehicle: saline): 104 % of control
T/C (dose: 100.0 mg/kg/injection, schedule: Q01DX006 (iv), vehicle: saline): 101 % of control
T/C (dose: 100.0 mg/kg/injection, schedule: Q01DX Z (im), vehicle: saline): 98 % of control
T/C (dose: 100.0 mg/kg/injection, schedule: Q01DX Z (sc), vehicle: saline): 102 % of control
T/C (dose: 125.0 mg/kg/injection, schedule: Q01DX Z (ip), vehicle: carboxymethylcellulose (CMC)): 124 % of control
T/C (dose: 125.0 mg/kg/injection, schedule: Q01DX Z (ip), vehicle: saline): 116 % of control
T/C (dose: 130.0 mg/kg/injection, schedule: Q01DX015 (ip), vehicle: saline): 114 % of control
T/C (dose: 150.0 mg/kg/injection, schedule: Q01DX005 (ip), vehicle: saline): 104 % of control
T/C (dose: 150.0 mg/kg/injection, schedule: Q03HX016 (ip), vehicle: saline): 103 % of control
T/C (dose: 150.0 mg/kg/injection, schedule: Q08DX002 (ip), vehicle: saline): 116 % of control
T/C (dose: 200.0 mg/kg/injection, schedule: Q01DX001 (ip), vehicle: saline): 110 % of control
T/C (dose: 200.0 mg/kg/injection, schedule: Q01DX006 (iv), vehicle: saline): 104 % of control
T/C (dose: 200.0 mg/kg/injection, schedule: Q01DX015 (ip), vehicle: saline): 120 % of control
T/C (dose: 200.0 mg/kg/injection, schedule: Q01DX Z (im), vehicle: saline): 110 % of control
T/C (dose: 200.0 mg/kg/injection, schedule: Q01DX Z (sc), vehicle: saline): 116 % of control
T/C (dose: 268.0 mg/kg/injection, schedule: Q## X004 (ip), vehicle: saline): 108 % of control
T/C (dose: 300.0 mg/kg/injection, schedule: Q01DX001 (sc), vehicle: saline): 96 % of control
T/C (dose: 300.0 mg/kg/injection, schedule: Q01DX005 (ip), vehicle: saline): 116 % of control
T/C (dose: 300.0 mg/kg/injection, schedule: Q01DX009 (sc), vehicle: saline): 113 % of control
T/C (dose: 300.0 mg/kg/injection, schedule: Q01DX Z (ip), vehicle: saline): 160 % of control
T/C (dose: 300.0 mg/kg/injection, schedule: Q03HX016 (ip), vehicle: saline): 110 % of control
T/C (dose: 300.0 mg/kg/injection, schedule: Q03HX024 (ip), vehicle: saline): 109 % of control
T/C (dose: 300.0 mg/kg/injection, schedule: Q04DX003 (ip), vehicle: saline): 119 % of control
T/C (dose: 300.0 mg/kg/injection, schedule: Q08DX002 (ip), vehicle: saline): 111 % of control
T/C (dose: 320.0 mg/kg/injection, schedule: Q01DX015 (ip), vehicle: saline): 156 % of control and 174 % of control
T/C (dose: 333.0 mg/kg/injection, schedule: Q02DX004 (ip), vehicle: saline): 116 % of control
T/C (dose: 352.0 mg/kg/injection, schedule: Q## X032 (ip), vehicle: saline): 116 % of control
T/C (dose: 400.0 mg/kg/injection, schedule: Q01DX001 (ip), vehicle: saline): 105 % of control
T/C (dose: 400.0 mg/kg/injection, schedule: Q01DX006 (iv), vehicle: saline): 113 % of control
T/C (dose: 400.0 mg/kg/injection, schedule: Q01DX013 (ip), vehicle: saline): 178 % of control
T/C (dose: 400.0 mg/kg/injection, schedule: Q01DX Z (ip), vehicle: saline): 151 % of control
T/C (dose: 400.0 mg/kg/injection, schedule: Q01DX Z (oral), vehicle: saline): 104 % of control
T/C (dose: 400.0 mg/kg/injection, schedule: Q## X004 (ip), vehicle: saline): 113 % of control
T/C (dose: 450.0 mg/kg/injection, schedule: Q01DX015 (ip), vehicle: saline): 155 % of control
T/C (dose: 536.0 mg/kg/injection, schedule: Q## X032 (ip), vehicle: saline): 119 % of control and 120 % of control
T/C (dose: 600.0 mg/kg/injection, schedule: Q01DX001 (sc), vehicle: saline): 105 % of control

Reference: PubChem BioAssay AID248 (DTP/NCI, 2004)
